# Patent US7141252B2, “Composition for the treatment of burns, sunburns, abrasions, ulcers and cutaneous irritation” (priority 2003, dated 2006)
# Tested on: burns
# Assay: Treating burns with different combinations of the ingredients
# Type: in vivo
# Conditions: topical treatment of burns, comparison of ingredient combinations
smiles,measurement,value
OB(O)O [boric acid],healing of burns,appeared to advance healing without infection but only in a very limited fashion
